Experimental data taken from ChEMBL document CHEMBL1127259, “Synthesis of RPR 100893, prototype of a new series of potent and selective non peptide NK1 antagonists : the triarylperhydroisoindolols” (Bioorg Med Chem Lett, 1994).

Species: Cavia porcellus
Assay: Tested for antagonism of the contractile effect on guinea pig ileum preparations
Type: functional
Settings: read-out: pA2 (converted)

## COc1ccccc1[C@H](C)C(=O)N1C[C@@H]2[C@H](C1)C(c1ccccc1)(c1ccccc1)CC[C@@]2(O)c1ccccc1OC [DAPITANT]
  Kb: 8.91 nM
